In the experiment the target is Ubiquitin carboxyl-terminal hydrolase 8 (Homo sapiens) (UniProt P40818). The experiment in a line: Ubiquitin-specific protease 8 inhibitors, concentration-effect, biochemical, validation of initial actives (AID 1645862).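 Further: potency reflects inhibition of USP8 cleavage of a ubiquitin rhodamine substrate.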 The conditions noted are these: recombinant USP8 deubiquitinase activity assay.

The source made the active and inactive calls. How the calls were made is not given here.

Chain of Ubiquitin carboxyl-terminal hydrolase 8 (Homo sapiens) (P40818 whole entry, looked up): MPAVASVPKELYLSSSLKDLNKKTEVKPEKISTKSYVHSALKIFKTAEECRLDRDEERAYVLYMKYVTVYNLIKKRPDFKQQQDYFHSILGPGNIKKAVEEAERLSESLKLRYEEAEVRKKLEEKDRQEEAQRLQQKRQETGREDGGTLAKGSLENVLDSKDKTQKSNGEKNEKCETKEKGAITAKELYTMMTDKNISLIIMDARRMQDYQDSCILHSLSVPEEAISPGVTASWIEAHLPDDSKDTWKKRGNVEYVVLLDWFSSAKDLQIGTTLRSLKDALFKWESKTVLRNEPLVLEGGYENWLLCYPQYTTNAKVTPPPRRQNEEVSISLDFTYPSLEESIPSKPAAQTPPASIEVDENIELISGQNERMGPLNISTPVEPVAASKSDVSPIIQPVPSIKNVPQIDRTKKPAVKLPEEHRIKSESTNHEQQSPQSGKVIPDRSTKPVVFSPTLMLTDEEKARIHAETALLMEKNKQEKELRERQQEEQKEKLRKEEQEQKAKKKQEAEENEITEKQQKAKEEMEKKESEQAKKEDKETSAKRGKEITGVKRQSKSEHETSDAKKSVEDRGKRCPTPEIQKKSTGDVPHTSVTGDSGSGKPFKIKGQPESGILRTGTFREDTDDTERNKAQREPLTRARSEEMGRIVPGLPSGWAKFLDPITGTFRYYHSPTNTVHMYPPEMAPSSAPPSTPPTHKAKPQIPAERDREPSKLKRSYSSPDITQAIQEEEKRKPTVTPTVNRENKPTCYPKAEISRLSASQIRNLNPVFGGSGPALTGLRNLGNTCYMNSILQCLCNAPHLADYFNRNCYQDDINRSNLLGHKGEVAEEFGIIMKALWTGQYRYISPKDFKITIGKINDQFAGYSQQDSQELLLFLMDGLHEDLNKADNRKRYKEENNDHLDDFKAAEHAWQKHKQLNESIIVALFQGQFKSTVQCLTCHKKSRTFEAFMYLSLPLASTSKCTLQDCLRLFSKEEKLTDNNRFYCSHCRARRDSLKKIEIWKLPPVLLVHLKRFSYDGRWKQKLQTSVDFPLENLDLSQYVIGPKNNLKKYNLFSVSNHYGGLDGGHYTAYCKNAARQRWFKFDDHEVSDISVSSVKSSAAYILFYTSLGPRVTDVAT

The IC50 is the concentration needed to halve the response being measured. In the case of `COc1cccc(NC(=O)c2oc3ccccc3c2NC(=O)COc2cccc(OC)c2)c1`, the IC50 was > 40 µM (inactive).

For the molecule `COCCCN1CCS(=O)(=O)c2c(Cl)c(F)nc(Oc3ccccc3F)c21`, the IC50 is > 40 µM (inactive).

As to `CNC(=O)c1cc2nc(N(C)C)n(-c3ccc(F)cc3)c2s1`, the IC50 is > 40 µM (inactive).

`COc1ccc(C(CNC(=O)c2cc(-c3ccc(Cl)cc3)on2)N2CCOCC2)cc1` (stereo unspecified): the IC50 was > 40 µM (inactive). Under `COc1ccc(-c2cc3nc([C@H](C)NC(=O)Cc4cccc(F)c4)nn3cn2)cc1` stands > 40 µM (inactive); under `Cc1cc(N2CCOCC2)nc(N2CCN(C(=O)C(C)Oc3ccccc3)CC2)n1` (stereo unspecified), > 40 µM (inactive); under `Cn1cc(C(=O)Nc2ccccc2)c2[nH]c(=O)n(Cc3ccccc3)c(=O)c21`, > 40 µM (inactive). `N#Cc1cc(C(=O)c2cc(Cl)ccc2O)cn(-c2ccccn2)c1=O`: the IC50 was > 40 µM (inactive). As for `CN1C(=O)COc2cc(-c3noc(C(=O)NCc4ccc(F)cc4)n3)ccc21`, the figure is > 40 µM (inactive). Under `O=C(CSc1nnc2n(-c3ccccc3)c(=O)c3ccccc3n12)c1ccc(F)cc1` stands > 40 µM (inactive); under `O=C(COc1ccccc1-c1nnc(-c2ccccc2)o1)NCc1ccco1`, 37.9 µM. Under `COc1ccc2c(c1)c(CC(=O)Nc1ccc(N3CCOCC3)cc1)c(C)n2C(=O)c1ccc(Cl)cc1` stands > 40 µM (inactive); under `CCOc1ccc2c(c1)c(=O)c(C(=O)c1ccccc1)cn2CC(=O)Nc1ccc(Cl)cc1`, 32.2 µM; under `O=C(NCCc1nc2ccccc2n1CCOc1ccccc1Cl)C1CCCCC1`, > 40 µM (inactive). For the molecule `CCOc1ccc(-n2c(=O)c3sccc3n(CC(=O)Nc3cccc(C)c3)c2=O)cc1`, the IC50 was > 40 µM (inactive). Under `COc1ccc(S(=O)(=O)NCc2ccc3c(c2)cc(C)n3C)cc1` stands > 40 µM (inactive); under `Cc1c(-c2nsc(NC(=O)c3ccc(Cl)cc3)n2)nnn1-c1ccccc1F`, > 40 µM (inactive). Take `Cc1cc(=O)[nH]c(NC2CCN(S(=O)(=O)c3ccccc3C(F)(F)F)CC2)n1`: the IC50 is > 40 µM (inactive).

In the case of `COc1ccc(-c2cc3nc([C@H](C)NC(=O)CC4CCCC4)nn3cn2)cc1`, the IC50 was > 40 µM (inactive). As for `O=C(Nc1cccc([N+](=O)[O-])c1)Nc1ccc2snnc2c1`, the figure is 14.8 µM. As for `CCCCNC(=O)CSc1nnc(-c2cc3ccccc3n2C)o1`, the figure is > 40 µM (inactive); as for `COc1ccc(Cl)cc1C(=O)NNC(=O)c1cc(-c2ccccc2)n[nH]1`, > 40 µM (inactive); as for `O=C(Nc1ccc(NC(=O)c2ccccc2O)cc1)Nc1ccc(OCc2ccccc2)cc1`, > 40 µM (inactive).

For `CC(C)n1cc(CN2CCC(C(=O)Nc3cccc(-c4cccc(Cl)c4)c3)CC2)cn1`, the IC50 was > 40 µM (inactive). `O=C(COc1ccc(N2CC(C(=O)NCc3ccc4c(c3)OCO4)CC2=O)cc1)Nc1ccc(Cl)cc1` (stereo unspecified): the IC50 is > 40 µM (inactive).

As to `Cc1ccc(OCc2nc3ccccc3n2CC(=O)Nc2ccc(C(F)(F)F)cc2)cc1`, the IC50 is > 40 µM (inactive). In the case of `O=C(CCCn1c(=O)c2sccc2n(CC(=O)NCCC2=CCCCC2)c1=O)NCc1ccc2c(c1)OCO2`, the IC50 is > 40 µM (inactive). As for `COc1ccc(CC(=O)OCC(=O)N2c3ccccc3NC(=O)C2(C)C)cc1`, the figure is > 40 µM (inactive); as for `CC(C)=CCOC(C)(C)[C@H]1OC2CC[C@@]3(C)C(CCC4Cc5c([nH]c6ccccc56)[C@@]43C)C23OC3[C@@H]1O` (stereo partly specified), 35 µM.

On to `O=C(CN1C(=O)c2cccc3cccc1c23)NCCSCc1ccc(Cl)c(Cl)c1`, for which the IC50 was > 40 µM (inactive).

Take `Cc1ccc(NC(=O)Cn2cnc3c(c(C)c(C)n3-c3ccccc3)c2=O)c(C)c1`: the IC50 was > 40 µM (inactive). As for `CCOc1ccc2nc(NC(=O)c3ccc4ccccc4n3)sc2c1`, the figure is > 40 µM (inactive); as for `CC(C)Cc1ccc(-c2cc(-c3ccc(C(F)(F)F)cc3)c(C#N)c(=O)[nH]2)cc1`, > 40 µM (inactive); as for `CCOc1cccc(-c2noc(-c3nn(-c4ccccc4)ccc3=O)n2)c1`, > 40 µM (inactive).

Take `CC(=O)c1ccc(NC(=O)C2CC(=O)Nc3nc(SCc4ccccc4)nn32)cc1` (stereo unspecified): the IC50 was > 40 µM (inactive). As for `O=C(Nc1ccc(Cn2cnc(-c3nc(-c4ccccc4)no3)c2)cc1)c1ccccc1F`, the IC50 is > 40 µM (inactive).

In the case of `COc1ccc(OC)c(NC(=O)Cn2c(=O)n(CC3CCC(C(=O)NCCc4ccccc4)CC3)c(=O)c3ccccc32)c1` (stereo unspecified), the IC50 was > 40 µM (inactive). As for `Nc1ncc(-c2ccc(F)cc2)c(C2CCCN(C(=O)c3ccn[nH]3)C2)n1` (stereo unspecified), the figure is > 40 µM (inactive); as for `Cc1ccc(C)c(Cn2cnc3c(nnn3-c3cccc(F)c3)c2=O)c1`, > 40 µM (inactive). Turning to `COc1cccc(NC(=O)c2cnc(N3CCCC3)nc2C)c1`, the IC50 was > 40 µM (inactive).

Regarding `COc1cccc(CNc2ccc(-c3nc(-c4ccccc4)no3)nn2)c1`, the IC50 is > 40 µM (inactive). As for `O=C(Cn1c(=O)c2ccccc2n(CC(=O)Nc2cc(Cl)cc(Cl)c2)c1=O)NCc1ccco1`, the figure is > 40 µM (inactive). Under `O=C(/C=C/c1ccc(Br)cc1)Nc1cnc2ccccc2c1` stands > 40 µM (inactive); under `COc1ccc(C(=O)C(C)OC(=O)c2cccc(S(=O)(=O)Nc3cc([N+](=O)[O-])ccc3OC)c2)c(OC)c1` (stereo unspecified), > 40 µM (inactive); under `COc1ccc(NC(=O)CC(=O)c2ccc([N+](=O)[O-])cc2)cc1S(=O)(=O)Nc1ccc(Br)cc1`, > 40 µM (inactive). Under `C/C(=C\Cc1c(O)cc(C)c(C=O)c1O)CC[C@@]1(C)[C@H](C)CCC(=O)[C@@H]1C` stands > 40 µM (inactive); under `COc1cc(-c2ccccc2)c(O)c(O)c1-c1ccccc1`, 16 µM; under `O=C(NCc1ccccc1Cl)C1CCN(c2ccc(-c3ccccc3)nn2)CC1`, > 40 µM (inactive). As for `O=C1Cc2ccccc2C(=O)N1Cc1cccc(Cl)c1`, the IC50 was 4.12 µM. Under `COc1ccc(NS(=O)(=O)c2cc(NC(=O)CC(=O)c3ccc([N+](=O)[O-])cc3)ccc2C)cc1` stands > 40 µM (inactive). Under `O=c1c2ccccc2nc(CSc2cccc(Cl)c2Cl)n1-c1ccccc1` stands > 40 µM (inactive). Under `Cc1cc(C)c(NC(=O)CSc2nc3nccnc3c(=O)n2Cc2ccccc2Cl)c(C)c1` stands > 40 µM (inactive); under `COc1ccc(CCC(=O)Nc2nnc(C3CC(=O)N(c4ccc(C)cc4)C3)s2)cc1` (stereo unspecified), > 40 µM (inactive); under `O=C(COc1ncnc2sc3c(c12)CCCC3)Nc1ccc2c(c1)OCO2`, > 40 µM (inactive). Take `CCCCCCCCCCCCCCCc1cc(O)cc(O)c1C(=O)O`: the IC50 was 30.9 µM.

For the molecule `COc1ccc(-c2cc(-c3ccc(F)cc3)[nH]c(=O)c2C#N)cc1`, the IC50 is > 40 µM (inactive).

With `O=C(CCCc1nnc2c(=O)n(-c3cccc(F)c3)ccn12)NCc1ccc(Cl)cc1`, the IC50 is > 40 µM (inactive). As for `O=C(Nc1cc(S(=O)(=O)Nc2ccc(Cl)cc2)ccc1O)c1cc2c(s1)CCC2`, the figure is 10.7 µM; as for `O=c1c2[nH]c3ccccc3c2ncn1CCC1=CCCCC1`, > 40 µM (inactive). `CCCCCCCCC/C=C/C(=O)CCc1c(O)c(C=O)c2c(c1O)C(=O)OC2O` (stereo unspecified): the IC50 was 0.514 µM. Regarding `Cc1ccc(NC(=O)Cn2cc(C(=O)c3ccccc3)c(=O)c3cc(C)ccc32)cc1`, the IC50 is 39.6 µM. Under `COc1cccc2cc(-c3nnc(SCC(=O)c4ccc(F)cc4)n3C)oc12` stands > 40 µM (inactive). For the molecule `Cc1ccc2cc(CNc3ccccc3)c(=O)n(CC(=O)Nc3ccccc3C)c2c1`, the IC50 is > 40 µM (inactive).

As for `CCCC(O)CCCCCCCc1cc(O)cc(O)c1C(=O)OC(CCC)CCCCCCCc1cc(O)cc(O)c1` (stereo unspecified), the IC50 is > 40 µM (inactive).

Take `Cc1cc2nc(SCC(=O)c3ccc(O)cc3)[nH]c2cc1C`: the IC50 was > 40 µM (inactive). `CCCCOc1ccc(C(=O)n2ccn(S(=O)(=O)c3ccc(C)cc3)c2=O)cc1`: the IC50 was > 40 µM (inactive). As for `CC(=O)N1CCc2cc(S(=O)(=O)NC(Cc3ccccc3)C(=O)Nc3cccc(Cl)c3C)ccc21` (stereo unspecified), the figure is > 40 µM (inactive); as for `O=C(CCn1c(=O)c2ccccc2n(Cc2ccccc2F)c1=O)NCc1ccco1`, > 40 µM (inactive).

Regarding `O=C(NCc1ccc2c(c1)OCO2)c1cc2c(s1)CCC2`, the IC50 was 16.1 µM. For the molecule `O=C(c1cscn1)N1CCC2(CC1)CC1(CO2)Nc2ccccc2-n2cccc21` (stereo unspecified), the IC50 was > 40 µM (inactive). As for `Cc1ccc(S(=O)(=O)N2CCC3(CC2)OC(=O)Nc2ccccc23)cc1`, the figure is > 40 µM (inactive); as for `O=C(c1cnc2ccccc2n1)N1CCC(S(=O)(=O)c2ccc(-c3ccco3)cc2)CC1`, > 40 µM (inactive). As to `Cn1cc(C(=O)NCC2COc3ccccc3O2)c(=O)c2cc(S(=O)(=O)N3CCCCC3)ccc21` (stereo unspecified), the IC50 was > 40 µM (inactive).

Turning to `C[C@H](NC(=O)Cc1ccccc1F)c1nc2cc(-c3ccccc3F)ncn2n1`, the IC50 was > 40 µM (inactive).

On to `COc1ccc(Oc2cc3n(c(=O)n2)CCc2cc(OC)c(OC)cc2-3)cc1`, for which the IC50 was > 40 µM (inactive). As for `CCCn1c(=O)c(-c2ccc(C(=O)NCc3ccc(OC)cc3)cc2)nc2cccnc21`, the figure is > 40 µM (inactive); as for `O=C(c1ccco1)N1CCC2(CC1)CC1(CO2)Nc2ccccc2-n2cccc21` (stereo unspecified), 22.6 µM. As for `O=C(c1ccc2c(c1)OCO2)[C@@H]1[C@H](C(=O)OC(c2ccccc2)c2ccccc2)N2c3ccccc3C=CC2[C@@]12C(=O)Nc1ccccc12` (stereo partly specified), the figure is > 40 µM (inactive).

With `NS(=O)(=O)c1ccc(CNS(=O)(=O)/C=C/c2ccccc2)cc1`, the IC50 is > 40 µM (inactive).

With `COC(=O)c1ccc(C2c3[nH]c4ccccc4c3C[C@@H]3C(=O)N(c4ccc5c(c4)OCCO5)C(=O)N23)cc1` (stereo partly specified), the IC50 was > 40 µM (inactive). Consider `Cc1ccc(NC(=O)Cc2nnc3cc(-c4nc(C)no4)ccn23)cc1`, for which the IC50 was 21.3 µM.

The values above are taken from PubChem BioAssay AID1645862 (Buhrlage Lab, Dana-Farber Cancer Institute and Novartis …, 2021).
